Experimental data reported in patent US20250223268A1, “4-Methylsulfonylbenzamide Compound, Preparation Method, Herbicidal Composition And Use” (Jiangsu Flag Chemical Industry Co., Ltd., priority 2022, published 2025).

Tests used:
Assay in all cases: Greenhouse herbicidal activity assay, post-emergence
Format in all cases: in vivo
Conditions in all cases: Post-emergence test, rate 150 g a.i./hm^2; grade by fresh weight inhibition rate
[1] = system: Cyperus iria
Outline: (§1)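 Weeds were sown in nutrient soil in 7 cm pots and grown in a growth chamber to the 3-6 leaf stage, then foliar-sprayed, air-dried and returned to the chamber. Fresh weight inhibition was scored 14-21 days later in bands from A (≥80% to 100%) to E (<20%).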

[2] = system: Leptochloa chinensis
Outline: as §1

[3] = system: Eclipta prostrata
Outline: as §1

[4] = system: Digitaria sanguinalis
Outline: as §1

[5] = system: Echinochloa crusgalli
Outline: as §1

`Cn1ncnc1NC(=O)c1ccc(S(C)(=O)=O)c([S+]([O-])C2CC2)c1Cl` (racemic) [Compound 2-33] was tested, and the “Control efficacy grade, Cyperus iria” value [1] was “A (Fresh weight inhibition rate≥80% to 100%)”, the “Control efficacy grade, Leptochloa chinensis” value [2] was “A (Fresh weight inhibition rate≥80% to 100%)” and the “Control efficacy grade, Eclipta prostrata” value [3] was “A (Fresh weight inhibition rate≥80% to 100%)”. The “Control efficacy grade, Digitaria sanguinalis” value [4] was “A (Fresh weight inhibition rate≥80% to 100%)” and the “Control efficacy grade, Echinochloa crusgalli” value [5] was “A (Fresh weight inhibition rate≥80% to 100%)”.
For `Cn1ncnc1NC(=O)c1ccc(S(C)(=O)=O)c([S+]([O-])C2CCC2)c1Cl` (racemic) [Compound 2-38], the “Control efficacy grade, Cyperus iria” value [1] was “A (Fresh weight inhibition rate≥80% to 100%)”, the “Control efficacy grade, Leptochloa chinensis” value [2] was “A (Fresh weight inhibition rate≥80% to 100%)” and the “Control efficacy grade, Eclipta prostrata” value [3] was “A (Fresh weight inhibition rate≥80% to 100%)”. The “Control efficacy grade, Digitaria sanguinalis” value [4] was “A (Fresh weight inhibition rate≥80% to 100%)” and the “Control efficacy grade, Echinochloa crusgalli” value [5] was “A (Fresh weight inhibition rate≥80% to 100%)”.
For `Cn1ncnc1NC(=O)c1ccc(S(C)(=O)=O)c([S+]([O-])C2CCCC2)c1Cl` (racemic) [Compound 2-43], the “Control efficacy grade, Cyperus iria” value [1] was “A (Fresh weight inhibition rate≥80% to 100%)”, the “Control efficacy grade, Leptochloa chinensis” value [2] was “A (Fresh weight inhibition rate≥80% to 100%)” and the “Control efficacy grade, Eclipta prostrata” value [3] was “A (Fresh weight inhibition rate≥80% to 100%)”. The “Control efficacy grade, Digitaria sanguinalis” value [4] was “A (Fresh weight inhibition rate≥80% to 100%)” and the “Control efficacy grade, Echinochloa crusgalli” value [5] was “A (Fresh weight inhibition rate≥80% to 100%)”.
`Cn1ncnc1NC(=O)c1ccc(S(C)(=O)=O)c([S+]([O-])C2CCCCC2)c1Cl` (racemic) [Compound 2-48] was tested, and the “Control efficacy grade, Cyperus iria” value [1] was “A (Fresh weight inhibition rate≥80% to 100%)”, the “Control efficacy grade, Leptochloa chinensis” value [2] was “A (Fresh weight inhibition rate≥80% to 100%)” and the “Control efficacy grade, Eclipta prostrata” value [3] was “A (Fresh weight inhibition rate≥80% to 100%)”. For the same compound, the “Control efficacy grade, Digitaria sanguinalis” value [4] was “A (Fresh weight inhibition rate≥80% to 100%)” and the “Control efficacy grade, Echinochloa crusgalli” value [5] was “A (Fresh weight inhibition rate≥80% to 100%)”.
With `C=CC[S+]([O-])c1c(S(C)(=O)=O)ccc(C(=O)Nc2ncnn2C)c1Cl` (racemic) [Compound 2-68] the “Control efficacy grade, Cyperus iria” value [1] was “A (Fresh weight inhibition rate≥80% to 100%)”, the “Control efficacy grade, Leptochloa chinensis” value [2] was “A (Fresh weight inhibition rate≥80% to 100%)” and the “Control efficacy grade, Eclipta prostrata” value [3] was “A (Fresh weight inhibition rate≥80% to 100%)”. For the same compound, the “Control efficacy grade, Digitaria sanguinalis” value [4] was “A (Fresh weight inhibition rate≥80% to 100%)” and the “Control efficacy grade, Echinochloa crusgalli” value [5] was “A (Fresh weight inhibition rate≥80% to 100%)”.
For `CCC[S+]([O-])c1c(S(C)(=O)=O)ccc(C(=O)Nc2nnc(C)o2)c1Cl` (racemic) [Compound 3-2], the “Control efficacy grade, Cyperus iria” value [1] was “A (Fresh weight inhibition rate≥80% to 100%)”, the “Control efficacy grade, Leptochloa chinensis” value [2] was “A (Fresh weight inhibition rate≥80% to 100%)” and the “Control efficacy grade, Eclipta prostrata” value [3] was “A (Fresh weight inhibition rate≥80% to 100%)”. For the same compound, the “Control efficacy grade, Digitaria sanguinalis” value [4] was “A (Fresh weight inhibition rate≥80% to 100%)” and the “Control efficacy grade, Echinochloa crusgalli” value [5] was “A (Fresh weight inhibition rate≥80% to 100%)”.
For `CCCC[S+]([O-])c1c(S(C)(=O)=O)ccc(C(=O)Nc2nnc(C)o2)c1Cl` (racemic) [Compound 3-12], the “Control efficacy grade, Cyperus iria” value [1] was “A (Fresh weight inhibition rate≥80% to 100%)”, the “Control efficacy grade, Leptochloa chinensis” value [2] was “A (Fresh weight inhibition rate≥80% to 100%)” and the “Control efficacy grade, Eclipta prostrata” value [3] was “A (Fresh weight inhibition rate≥80% to 100%)”. The “Control efficacy grade, Digitaria sanguinalis” value [4] was “A (Fresh weight inhibition rate≥80% to 100%)” and the “Control efficacy grade, Echinochloa crusgalli” value [5] was “A (Fresh weight inhibition rate≥80% to 100%)”.
In the case of `CCC(C)Sc1c(S(C)(=O)=O)ccc(C(=O)Nc2nnc(C)o2)c1Cl` (racemic) [Compound 3-16], the “Control efficacy grade, Cyperus iria” value [1] was “A (Fresh weight inhibition rate≥80% to 100%)”, the “Control efficacy grade, Leptochloa chinensis” value [2] was “A (Fresh weight inhibition rate≥80% to 100%)” and the “Control efficacy grade, Eclipta prostrata” value [3] was “A (Fresh weight inhibition rate≥80% to 100%)”. For the same compound, the “Control efficacy grade, Digitaria sanguinalis” value [4] was “A (Fresh weight inhibition rate≥80% to 100%)” and the “Control efficacy grade, Echinochloa crusgalli” value [5] was “A (Fresh weight inhibition rate≥80% to 100%)”.
For `Cc1nnc(NC(=O)c2ccc(S(C)(=O)=O)c([S+]([O-])CC(C)C)c2Cl)o1` (racemic) [Compound 3-28], the “Control efficacy grade, Cyperus iria” value [1] was “A (Fresh weight inhibition rate≥80% to 100%)”, the “Control efficacy grade, Leptochloa chinensis” value [2] was “A (Fresh weight inhibition rate≥80% to 100%)” and the “Control efficacy grade, Eclipta prostrata” value [3] was “A (Fresh weight inhibition rate≥80% to 100%)”. For the same compound, the “Control efficacy grade, Digitaria sanguinalis” value [4] was “A (Fresh weight inhibition rate≥80% to 100%)” and the “Control efficacy grade, Echinochloa crusgalli” value [5] was “A (Fresh weight inhibition rate≥80% to 100%)”.
With `Cc1nnc(NC(=O)c2ccc(S(C)(=O)=O)c([S+]([O-])CC3CC3)c2Cl)o1` (racemic) [Compound 3-38] the “Control efficacy grade, Cyperus iria” value [1] was “A (Fresh weight inhibition rate≥80% to 100%)”, the “Control efficacy grade, Leptochloa chinensis” value [2] was “A (Fresh weight inhibition rate≥80% to 100%)” and the “Control efficacy grade, Eclipta prostrata” value [3] was “A (Fresh weight inhibition rate≥80% to 100%)”. For the same compound, the “Control efficacy grade, Digitaria sanguinalis” value [4] was “A (Fresh weight inhibition rate≥80% to 100%)” and the “Control efficacy grade, Echinochloa crusgalli” value [5] was “A (Fresh weight inhibition rate≥80% to 100%)”.
For `Cc1nnc(NC(=O)c2ccc(S(C)(=O)=O)c([S+]([O-])CCC(C)C)c2Cl)o1` (racemic) [Compound 3-53], the “Control efficacy grade, Cyperus iria” value [1] was “A (Fresh weight inhibition rate≥80% to 100%)”, the “Control efficacy grade, Leptochloa chinensis” value [2] was “A (Fresh weight inhibition rate≥80% to 100%)” and the “Control efficacy grade, Eclipta prostrata” value [3] was “A (Fresh weight inhibition rate≥80% to 100%)”. The “Control efficacy grade, Digitaria sanguinalis” value [4] was “A (Fresh weight inhibition rate≥80% to 100%)” and the “Control efficacy grade, Echinochloa crusgalli” value [5] was “B (Fresh weight inhibition rate≥260% to <80%)”.
`Cc1nnc(NC(=O)c2ccc(S(C)(=O)=O)c([S+]([O-])C3CC3)c2Cl)o1` (racemic) [Compound 3-78] was tested, and the “Control efficacy grade, Cyperus iria” value [1] was “A (Fresh weight inhibition rate≥80% to 100%)”, the “Control efficacy grade, Leptochloa chinensis” value [2] was “A (Fresh weight inhibition rate≥80% to 100%)” and the “Control efficacy grade, Eclipta prostrata” value [3] was “A (Fresh weight inhibition rate≥80% to 100%)”. The “Control efficacy grade, Digitaria sanguinalis” value [4] was “A (Fresh weight inhibition rate≥80% to 100%)” and the “Control efficacy grade, Echinochloa crusgalli” value [5] was “A (Fresh weight inhibition rate≥80% to 100%)”.
`Cc1nnc(NC(=O)c2ccc(S(C)(=O)=O)c([S+]([O-])C3CCC3)c2Cl)o1` (racemic) [Compound 3-83] was tested, and the “Control efficacy grade, Cyperus iria” value [1] was “A (Fresh weight inhibition rate≥80% to 100%)”, the “Control efficacy grade, Leptochloa chinensis” value [2] was “A (Fresh weight inhibition rate≥80% to 100%)” and the “Control efficacy grade, Eclipta prostrata” value [3] was “A (Fresh weight inhibition rate≥80% to 100%)”. For the same compound, the “Control efficacy grade, Digitaria sanguinalis” value [4] was “A (Fresh weight inhibition rate≥80% to 100%)” and the “Control efficacy grade, Echinochloa crusgalli” value [5] was “A (Fresh weight inhibition rate≥80% to 100%)”.
For `Cc1nnc(NC(=O)c2ccc(S(C)(=O)=O)c([S+]([O-])C3CCCC3)c2Cl)o1` (racemic) [Compound 3-88], the “Control efficacy grade, Cyperus iria” value [1] was “A (Fresh weight inhibition rate≥80% to 100%)”, the “Control efficacy grade, Leptochloa chinensis” value [2] was “A (Fresh weight inhibition rate≥80% to 100%)” and the “Control efficacy grade, Eclipta prostrata” value [3] was “A (Fresh weight inhibition rate≥80% to 100%)”. The “Control efficacy grade, Digitaria sanguinalis” value [4] was “A (Fresh weight inhibition rate≥80% to 100%)” and the “Control efficacy grade, Echinochloa crusgalli” value [5] was “A (Fresh weight inhibition rate≥80% to 100%)”.
For `Cc1nnc(NC(=O)c2ccc(S(C)(=O)=O)c([S+]([O-])C3CCCCC3)c2Cl)o1` (racemic) [Compound 3-93], the “Control efficacy grade, Cyperus iria” value [1] was “A (Fresh weight inhibition rate≥80% to 100%)”, the “Control efficacy grade, Leptochloa chinensis” value [2] was “A (Fresh weight inhibition rate≥80% to 100%)” and the “Control efficacy grade, Eclipta prostrata” value [3] was “A (Fresh weight inhibition rate≥80% to 100%)”. The “Control efficacy grade, Digitaria sanguinalis” value [4] was “A (Fresh weight inhibition rate≥80% to 100%)” and the “Control efficacy grade, Echinochloa crusgalli” value [5] was “A (Fresh weight inhibition rate≥80% to 100%)”.
`Cc1nnc(NC(=O)c2ccc(S(C)(=O)=O)c([S+]([O-])CC(F)(F)F)c2Cl)o1` (racemic) [Compound 3-98] was tested, and the “Control efficacy grade, Cyperus iria” value [1] was “A (Fresh weight inhibition rate≥80% to 100%)”, the “Control efficacy grade, Leptochloa chinensis” value [2] was “A (Fresh weight inhibition rate≥80% to 100%)” and the “Control efficacy grade, Eclipta prostrata” value [3] was “A (Fresh weight inhibition rate≥80% to 100%)”. For the same compound, the “Control efficacy grade, Digitaria sanguinalis” value [4] was “A (Fresh weight inhibition rate≥80% to 100%)” and the “Control efficacy grade, Echinochloa crusgalli” value [5] was “A (Fresh weight inhibition rate≥80% to 100%)”.
`Cc1nnc(NC(=O)c2ccc(S(C)(=O)=O)c([S+]([O-])CC(F)F)c2Cl)o1` (racemic) [Compound 3-103] was tested, and the “Control efficacy grade, Cyperus iria” value [1] was “A (Fresh weight inhibition rate≥80% to 100%)”, the “Control efficacy grade, Leptochloa chinensis” value [2] was “A (Fresh weight inhibition rate≥80% to 100%)” and the “Control efficacy grade, Eclipta prostrata” value [3] was “A (Fresh weight inhibition rate≥80% to 100%)”. The “Control efficacy grade, Digitaria sanguinalis” value [4] was “A (Fresh weight inhibition rate≥80% to 100%)” and the “Control efficacy grade, Echinochloa crusgalli” value [5] was “A (Fresh weight inhibition rate≥80% to 100%)”.
`C=CC[S+]([O-])c1c(S(C)(=O)=O)ccc(C(=O)Nc2nnc(C)o2)c1Cl` (racemic) [Compound 3-113] was tested, and the “Control efficacy grade, Cyperus iria” value [1] was “A (Fresh weight inhibition rate≥80% to 100%)”, the “Control efficacy grade, Leptochloa chinensis” value [2] was “A (Fresh weight inhibition rate≥80% to 100%)” and the “Control efficacy grade, Eclipta prostrata” value [3] was “A (Fresh weight inhibition rate≥80% to 100%)”. For the same compound, the “Control efficacy grade, Digitaria sanguinalis” value [4] was “A (Fresh weight inhibition rate≥80% to 100%)” and the “Control efficacy grade, Echinochloa crusgalli” value [5] was “A (Fresh weight inhibition rate≥80% to 100%)”.
In the case of `C=C(C)C[S+]([O-])c1c(S(C)(=O)=O)ccc(C(=O)Nc2nnc(C)o2)c1Cl` (racemic) [Compound 3-143], the “Control efficacy grade, Cyperus iria” value [1] was “A (Fresh weight inhibition rate≥80% to 100%)”, the “Control efficacy grade, Leptochloa chinensis” value [2] was “A (Fresh weight inhibition rate≥80% to 100%)” and the “Control efficacy grade, Eclipta prostrata” value [3] was “A (Fresh weight inhibition rate≥80% to 100%)”. For the same compound, the “Control efficacy grade, Digitaria sanguinalis” value [4] was “A (Fresh weight inhibition rate≥80% to 100%)” and the “Control efficacy grade, Echinochloa crusgalli” value [5] was “A (Fresh weight inhibition rate≥80% to 100%)”.
